In a melting point compilation (Tetko et al.; mined from patent text by program, amines drawn as free bases though some values may be those of a salt):

Row | melting point [°C] | Structure (SMILES)
1 | 164 to 165 | Oc1cccc([C@H]2CCCC[C@@H]2NCCc2ccccc2)c1 (racemic)
2 | 166 to 168 | N#Cc1c(N2CCCCC2)cc(-c2ccccc2)c2c1-c1ccccc1C2=O
3 | 146 to 147 | COc1ccc(CNC(=O)C(=O)NCCc2cccs2)c(OC)c1
4 | 181 to 183 | CCOC(=O)c1ncc2[nH]c3ccccc3c2c1CCOC
5 | 109 to 110 | COCCNC(=O)c1cc(F)cc(-c2cccc3c(F)c(Cc4cccc(C(F)(F)F)c4)sc23)c1
6 | 188 to 191 | CCOC(=O)NNC(=O)NC1c2ccccc2Oc2ccccc21
7 | 169 to 171 | C#CCOc1ccc2c(C)nnc(Cl)c2c1
8 | 99 to 105 | CCCCCCCCCCCCc1ccc2c(c1)C(=O)c1ccccc1C2=O
9 | 156 to 158 | CC(=O)c1cc(C(N)=O)cs1
10 | 250 | O=C(O)c1c(Cl)ccc2cc(C(F)(F)F)cnc12
11 | 190 to 192 | O=c1[nH]c2cc(Cl)c(S(=O)CCN3CCC(Cc4ccccc4)CC3)cc2o1 (configuration not stated)
12 | 136 to 138 | Cc1cc(C2=Nn3cc(C(F)(F)F)nc3SC2c2ccc(F)cc2)cc2c1OCC(=O)N2 (configuration not stated)
13 | 153 to 155 | CN1Cc2ccccc2C(=O)c2c1nc1ccc(Br)cc1c2Cl
14 | 296 to 298 | N#CC(=Cc1cc(O)c(O)c([N+](=O)[O-])c1)C(N)=O
15 | 169 to 171 | CC(C)(C(=O)O)c1oc2cccc-2cc1-c1ccccc1
16 | 172 to 181 | COc1ccc(Cc2nc3c(O)cccc3o2)cc1OC1CCCC1
17 | 67 to 68 | CCCCCCCC(=O)N(C)Cc1cccc(-c2ccc(CCC(=O)O)s2)c1
18 | 132 | COC(=O)c1nc2c(NC(=O)C(C)(C)C)cccn2c1C
19 | 86 to 87 | CC(C)(C)c1ccc(C(C)(C)C(=O)Oc2ccc(SCCCC(=O)O)cc2)cc1
20 | 119 | CN(C)c1ccc(-c2cccc(OC3SCC(O)C(O)C3O)c2)cn1 (configuration not stated)
21 | 139 to 140 | COC(=O)Cc1sc(S)nc1C
22 | 157 to 158 | COc1ncccc1C(=O)NCCc1ccc(CC(=O)O)cc1
23 | 208 to 209 | CCC(=O)NC1=NN(c2nc3ccccc3s2)C(c2ccc(C)cc2)C1 (configuration not stated)
24 | 162 to 165 | CC(C)Cn1c(=O)n(C)c(=O)c2c(SCCCC(N)=O)n(Cc3cccc4ccccc34)cc21

Row | melting point [°C] | Structure (SMILES)
25 | 109 to 110 | CC(C(O)C(C)(C)Cc1ccc(Cl)c(OC(F)(F)F)c1)n1cncn1 (configuration not stated)
26 | 129 to 131 | CCCNC(=O)c1nc(C)ccc1C(=O)Nc1c(Cl)ccc(C)c1C#N
27 | 182 to 184 | NC(=O)/C=C1\CCc2c(Cl)cc(F)cc21
28 | 203 to 205 | CCOC(=O)C[C@@H](CCCc1ccncc1)C(=O)N[C@H]1Cc2cn(c3ccccc23)CCOCCNC1=O
29 | 121 to 122 | COC(=O)C(C)(C)C(=O)Oc1ccc(C(=O)c2ccccc2)cc1
30 | 92 to 94 | CCCC(CCC)C(=O)O[C@H]1CCC=C2C=C[C@H](C)[C@H](CC[C@@H]3C[C@@H](O)CC(=O)O3)[C@H]21
31 | 138 to 140 | CCCCn1c(=O)c(NC(=O)Nc2c(C(C)C)cccc2C(C)C)c(-c2cccc(OCCCCl)c2)c2cccnc21
32 | 97 to 99 | COc1cc(-c2cc(C(F)(F)F)nn2-c2ccc(S(N)(=O)=O)c(F)c2)ccc1-c1cscn1
33 | 176 to 188 | O=C(O)c1cc2cc(Cl)ccc2nc1N[C@@H](Cc1ccc(O)cc1)C(=O)O
34 | 134 to 136 | COc1ccc2c(c1OCc1ccccc1)CC(C(=O)O)N(C(=O)N(C)c1ccccc1)C2 (racemic)
35 | 64 to 65 | CC(C)[C@H]1COC(=O)N1C(=O)[C@H](C)CC(=O)OC(C)(C)C
36 | 128 to 129 | CCCCCCc1c(C(F)(F)F)noc1NS(=O)(=O)c1ccccc1
37 | 171 to 177 | CS(=O)(=O)c1ccc(-c2ccc3cnc(Nc4ccc(N5CCOCC5)nc4)nn23)cc1
38 | 207 | CC(C)(C)C(COC(N)=O)(NC(=O)C(=O)c1c[nH]c2ccc(Br)cc12)c1c[nH]c2ccc(Br)cc12 (configuration not stated)
39 | 205 to 208 | CC(=O)Nc1cccc(-c2c(C)c(NC(=O)CC(C)(C)C)c(C)c3c2OCC3c2ccc(C(C)C)cc2)n1 (configuration not stated)
40 | 78 | COc1ccc(CSCC(=O)NO)cc1OC
41 | 92 to 93 | CCOP(=O)(/C=C/c1cn(-c2ccccc2)nc1OCc1ccc(OCc2nc(-c3ccco3)oc2C)c(C(=O)OC)c1)OCC
42 | 196 to 198 | CCS(=O)(=O)c1cn(C)cc(-c2cccc(C(F)(F)F)c2)c1=O
43 | 128 to 130 | CC(C)(CO)Nc1nc(-c2ccc(C#N)c(F)c2)cs1
44 | 150 | COc1cc(NCCO)c([N+](=O)[O-])c(NCCO)c1
45 | 179 to 181 | O=C1c2ccccc2C(=O)N1CC(=O)N1c2ccccc2N(Cc2ccc(OCc3ccccc3)cc2)C(=O)[C@H]2CCC[C@H]21 (relative stereo)
46 | 121 to 122 | CCCCc1nc(C(=O)c2ccccc2)c(C#N)[nH]1
47 | 66 to 68 | CCCc1c(OCCCSc2ccc(C(=O)OC)cn2)ccc(C(C)=O)c1O
48 | 230 to 235 | CC(=O)Nc1nc(-c2ccc([N+](=O)[O-])cc2)c(C)[nH]1

Row | melting point [°C] | Structure (SMILES)
49 | 185 to 190 | COc1ccc(CNC(=S)NNC(=O)C(N)=O)cc1
50 | 125 to 128 | O=C(C1CCN(S(=O)(=O)c2ccc(Cl)cc2)CC1)N1CCN(c2ccncn2)CC1
51 | 174 to 175 | O=C(N[C@H](Cc1ccc(C(F)(F)F)cc1)[C@@H](O)c1ccc(F)cc1)c1ccc2ccccc2c1 (racemic)
52 | 122 to 124 | Nc1ncccc1OCc1c(F)cc(F)cc1F
53 | 126 to 128 | CCOC(=O)C=Cc1cc(OCc2ccccc2)ccc1-c1ccc(-c2cccnc2)c(C=O)c1
54 | 97.5 to 98.5 | COc1ccc(-n2nc(C(C)CCO)cc2-c2ccc(Cl)cc2)cc1 (configuration not stated)
55 | 164 | O=c1[nH]c2cc(C(F)(F)F)ccc2n1CCN1CCN(C(c2ccccc2)c2ccccc2)CC1
56 | 171 to 172 | CC(=O)n1c(=O)oc2c(Cl)c(Cl)c(Cl)cc21
57 | 133 to 135 | FC(F)(F)Oc1cccc(Cn2cnc3c(-c4ccco4)ncnc32)c1
58 | 240 to 243 | Cc1n[nH]c(C)c1-c1nn(C(C)c2oc3ccccc3c(=O)c2-c2cccc(F)c2)c2ncnc(N)c12 (configuration not stated)
59 | 67 to 70 | COc1ccc2cc(C(C)C(=O)NCC3(C)CCC4C(=C(C)C(C)=CC4(C)O)O3)ccc2c1 (configuration not stated)
60 | 158 to 160 | Oc1cc2c(c(Cl)c1Cl)C(O)C(C1CCCC1)C2 (configuration not stated)
61 | 104 to 105 | O=C1NCc2ccsc21
62 | 161 to 162 | COC(=O)C1c2ccccc2C(=O)N(CC(F)(F)F)C1c1cn[nH]c1 (configuration not stated)
63 | 53 to 57 | CN1c2cccc3cccc(c23)N(C)C1(C)C
64 | 125 to 127 | CC(=O)OC(C)(C(=O)O)c1ccc(-c2ccccc2)c(F)c1 (configuration not stated)
65 | 245 to 247 | CC#CCOc1ccc(S(=O)(=O)NC(C(=O)O)c2ccc(OCCN3CCCC3)cc2)cc1 (configuration not stated)
66 | 250 | O=C(NC1CCC1)c1cc(Nc2nc(N3CCCC3c3ccccn3)nc3ccoc23)[nH]n1 (configuration not stated)
67 | 266 to 267 | CCc1c(Cl)c(CC)c(-c2c(O)c(C)nn(C)c2=O)c(CC)c1Cl
68 | 222 to 224 | O=C(Nc1ccc(N2CC(F)(F)C2)nc1)c1cc2cc(C(F)(F)F)cnc2n1Cc1cccc(F)c1
69 | 180 | CC(=O)c1c(Cl)n(C)c2ccccc12
70 | 214 to 216 | CS(=O)(=O)Nc1cc(C(c2cc(F)ccc2F)S(=O)(=O)c2ccc(Cl)cn2)c(Cl)cn1 (configuration not stated)
71 | 162 to 164 | CN[C@@H](C)[C@@H]1CCN(c2c(F)cc3c(=O)[nH]c(=O)n(C4CC4)c3c2OC)C1
72 | 200 to 201 | CN(C)C(=O)Sc1nc(-c2ccccc2)cn1-c1ccc([N+](=O)[O-])cn1

Row | melting point [°C] | Structure (SMILES)
73 | 40 to 42 | CCCCCCS(=O)(=O)c1nnnn1CC(=O)OCC
74 | 82.5 to 83.5 | CN(C)CCCOc1ccc(N(C(=O)c2ccc(F)cc2)c2ccccc2)cc1
75 | 256 to 258 | Cn1c2cc(Cl)ccc2c2c(C(=O)N3CCCC3)nc(-c3ccncc3)nc21
76 | 204 | O=C(Nc1cc(Cl)ccc1S(=O)(=O)c1ccccc1)N[C@@H](Cc1ccc(NC(=O)c2c(Cl)cncc2Cl)cc1)C(=O)O
77 | 125 to 128 | COc1cccc(CCS(=O)c2nc3cnccc3[nH]2)c1 (configuration not stated)
78 | 150 to 153 | C[C@H](C(=O)N[C@H](CO)Cc1ccccc1)c1ccc(NS(C)(=O)=O)c(F)c1
79 | 180 to 183 | CC(=O)Nc1ccc2[nH]c(=O)cc(CCN3CCC(c4c[nH]c5ccccc45)CC3)c2c1
80 | 124 | Cc1cc(N)c([N+](=O)[O-])c(C)c1N
81 | 113 to 114 | Cc1sc(-c2ccccc2)nc1COc1ccc(CCC[C@@H]2OC(=O)NC2=O)cc1
82 | 112 to 113 | CCOC(=O)C=Cc1ccc(O)c(Br)c1
83 | 188 | CC(=O)N(O)CC1=C(n2ccccc2=O)c2cc(C(F)(F)F)ccc2OC1(C)C
84 | 173 to 175 | Cc1ccc(-c2nc3ccc(N(C)C)cn3c2CNC(=O)CC(C)C)cc1
85 | 175 to 178 | O=C(Nc1ccccc1)Nc1nc(C(O)CO)cs1 (configuration not stated)
86 | 120 to 122 | CCOC(=O)C(Cc1cccc2cccnc12)(NC=O)C(=O)OCC
87 | 90 to 91 | COC(=O)CCc1nc(CCc2ccc(CC(=O)OC)cc2)ccc1O
88 | 127 to 128 | Cc1c(Br)c2c(c3c1C(c1ccc(C(C)C)cc1)CO3)CCC2 (configuration not stated)
89 | 160 to 161 | CC(C)(C)OC(=O)NCC1(Cc2noc(=S)[nH]2)CCCCC1
90 | 189 to 190 | Cc1nnc(Sc2nc3ccc(Cl)cc3nc2C)s1
91 | 125 to 130 | COCCc1nc2c(N)nc3ccccc3c2n1CC(C)(C)CNC(=O)Nc1ccccc1
92 | 158 to 159 | COC(=O)COc1ccc(C(=O)NN(C)C(=O)OC(C)(C)C)cc1
93 | 235 to 238 | CC=CN(C=CC)c1ccc2[nH]c3cnc(C(=O)OCC)cc3c2c1
94 | 274 to 275 | CCCc1c(/C=C/c2ccc(C)cc2)nc2ccc(C(=O)O)cn2c1=O
95 | 253 | COC(=O)Cn1c(=O)[nH]c2ccc(C(=O)c3c(C)c(OC)c4ccccn34)cc2c1=O
96 | 193 to 195 | O=C1CCC(N2Cc3c(OCc4ccc(CN5CCC(F)(F)CC5)cc4)cccc3C2=O)C(=O)N1 (configuration not stated)

Row | Structure (SMILES) | melting point [°C]
97 | CCOCC(OC(C)=O)C1CC(=O)C2(C)CCC3C(CCC4=CC(=O)C=C(C)C43C)C12 (configuration not stated) | 155 to 157
